According to publication PMC11939955, “Enhancing Antimicrobial Peptides from Frog Skin: A Rational Approach” (Biomolecules, 2025):
Where no end group is shown, it is not given here.

Assays:
[1] = test system: Acinetobacter baumannii (ATCC 13304); type: cell-based; settings: for Reduction in MIC against A. baumannii compared to hylin-Pul3: versus parent peptide hylin-Pul3
Description: (§1) Hylin-Pul3 and six derivatives (dHP3-31, dHP3-50, dHP3-50.137, dHP3-50.190, dHP3-84, and dHP3-84.39) were tested against two Gram-positive bacteria, Staphylococcus aureus (ATCC 25923) and Streptococcus mutans (ATCC 25175), as well as three Gram-negative bacteria: Escherichia coli (ATCC 25922), Klebsiella pneumoniae (ATCC 13883), and Acinetobacter baumannii (ATCC 13304). The minimal inhibitory concentration (MIC) was determined using the microbroth dilution.
(§2) The peptides were serially diluted in concentrations ranging 128 to 0.25 μM, with gentamicin serving as a positive control, which was serially diluted to concentrations of 20 to 0.04 μM. Bacterial cultures were prepared in Mueller–Hinton (MH) medium to achieve a final inoculum concentration of 5 × 10^5 CFU/mL. […] All tests were performed in duplicate and repeated across three independent experiments.

[2] = test system: Escherichia coli (ATCC 25922); type: cell-based; settings: for Reduction in MIC against E. coli compared to hylin-Pul3: versus parent peptide hylin-Pul3
Description: as §1, §2

[3] = test system: Klebsiella pneumoniae (ATCC 13883); type: cell-based
Description: as §1, §2

[4] = test system: Staphylococcus aureus (ATCC 25923); type: cell-based
Description: as §1, §2

[5] = test system: Streptococcus mutans (ATCC 25175); type: cell-based
Description: as §1, §2

[6] = test system: Varicellovirus suidalpha1; type: cell-based; settings: hylin-Pul3 at 20 μg/mL (10.8 μM), dHP3-84 at 75 μg/mL (34.5 μM); Vero monolayers, 90 min adsorption then 72 h at 37 °C, plaque titer, duplicate
Description: Antiviral activity assays were performed following a previously described protocol with slight modifications. The efficacy of the peptide compounds was assessed at different stages of the viral lifecycle, including adsorption, penetration, and intracellular replication. The hylin-Pul3 and dHP3-84 peptides were tested at non-cytotoxic concentrations of 20 μg/mL (10.8 μM) and 75 μg/mL (34.5 μM), respectively. Vero cell monolayers (African green monkey kidney cells) were cultured in 24-well plates and exposed to the peptide solutions along with serial 10-fold dilutions of Varicellovirus suidalpha1, formerly known as Herpes suis virus type 1 (HSV-1). The assays were performed in duplicate. […] The viral plaques that formed on the Vero cells were stained (1% crystal violet) and the viral titers were determined. The percentage viral inhibition was calculated by comparing the reduction in viral titer between the treatment and control groups. This was determined using the following formula: (2) % viral inhibition=100−A/B×100 where “A” represents the viral titer expressed in PFU/mL (Plaque-Forming Units per milliliter) obtained in the treated cultures and “B” is the viral titer expressed in PFU/mL obtained in the untreated cultures.

Vero cells = type: cell-based, African green monkey; settings: for CC50, concentration inducing 50% cell death in Vero cells / Cytotoxicity in Vero cells, CC50: 48 h
Description: The cytotoxicity of hylin-Pul3 and dHP3-84 peptides was evaluated on Vero cells procured from the Asociación Banco Argentino de Células (ABAC; Buenos Aires, Argentina). Cell viability was determined using the Neutral Red Uptake test (NRU) test, following a previously described methodology. The Vero cells were cultured in Minimum Essential Medium (MEM) supplemented with 8% fetal calf serum (FCS), 50 μg/mL gentamicin, and 2 mM glutamine. The cells were monitored by observing their morphological changes after 24 and 48 h of incubation.
For the NRU assay, the cells were seeded in 96-well culture plates at a density of 1 × 10^5 cells per well. The cell monolayers were treated with increasing concentrations of the peptide solutions (25–500 μg/mL) for 48 h in triplicate. The monolayers incubated with MM only were used as the control. Following exposure, the culture medium was replaced with 150 μL of a […] neutral red solution in MEM. After incubation at 37 °C for 3 h, the dye medium was discarded and the wells were gently washed with PBS. The intracellular dye was extracted using a mixture of acetic acid, ethanol, and water (1:50:49). After gentle agitation for 10 min, the absorbance values were measured at 540 nm.
The relative cell viability was calculated as a percentage of the NRU observed in the untreated control groups. The cell survival fraction was determined using the following formula: (4) Survival Fraction % (SF%)=D.O. treated cells/D.O. control cells×100

[7] = DPPH radical-scavenging activity; settings: peptides 0.1, 0.05, 0.025 mg/mL, 30 min dark 25 °C, absorbance 515 nm, triplicate
Description: A stock solution of 60 µM 1,1-diphenyl-2-picrylhydrazyl (DPPH) was prepared in ethanol, with its absorbance adjusted to 0.7 at 515 nm immediately before the assay using a Shimadzu 1240 UV–visible spectrophotometer (Kyoto, Japan). The peptides were dissolved in PBS, and 20 µL aliquots of each peptide solution were incubated with 180 µL of the ethanolic DPPH solution in triplicate, at final concentrations of 0.1, 0.05, and 0.025 mg/mL. For the negative control, 20 µL of PBS was mixed with 180 µL of the DPPH solution, while 20 µL of Trolox (6-hydroxy-2,5,7,8-tetramethylchroman-2-carboxylic acid) served as the positive control and standard. The mixtures were incubated in the dark at 25 °C for 30 min, after which, the absorbance was measured at 515 nm. The reduction in absorbance, indicative of DPPH-scavenging activity, was compared to a standard curve. The results were expressed as milligrams of Trolox equivalents per milligram of peptide (mg Trolox equivalents/mg of peptide).

ABTS assay = settings: peptides 0.05, 0.025, 0.0125 mg/mL, 1 h dark, absorbance 734 nm, triplicate
Description: The 2,2-azinobis-3-ethylbenzothiazoline-6-sulfonic acid (ABTS^+) free radical-scavenging activity was determined following the method in [38]. The ABTS⁺ radical cation was generated by diluting a 245 mM ammonium persulfate (APS) solution at a ratio of 1:100 with a 7 mM ABTS solution, followed by overnight incubation in the dark at room temperature. The ABTS^+ solution was then diluted with water to obtain an absorbance of 0.70 at 734 nm immediately before the assay using a Shimadzu 1240 UV-visible spectrophotometer (Kyoto, Japan). The peptides were dissolved in PBS, and 10 µL aliquots of each peptide solution were incubated with 190 µL of the ABTS^+ solution in triplicate, at final concentrations of 0.05, 0.025, and 0.0125 mg/mL. After a 1 h incubation in the dark, the absorbance was measured at 734 nm. The radical-scavenging activity was quantified against a standard curve, with the results expressed as milligrams of Trolox equivalents per milligram of peptide.

E. coli (ATCC 25922) = test: Synergistic checkerboard assay; type: cell-based, Escherichia coli
Description: Briefly, working solutions of the peptides were prepared and serially diluted by half across the rows and columns of a microplate, ensuring that each well contained a unique combination of peptide concentrations. The starting concentrations corresponded to the respective MIC values of each peptide, followed by two-fold serial dilutions.
Each well was filled with 50 µL of the peptide solution (individual or combined) and 50 µL of a bacterial suspension (1 × 10^6 CFU/mL), resulting in a final bacterial concentration of 5 × 10^5 CFU/mL. The individual peptide solutions served as positive controls, while the MH medium was employed as a negative control. The microplates were incubated at 37 °C overnight. The test was performed in three independent experiments. The fractional inhibitory concentrations index (ΣFIC) was calculated using the following equation: (1) ∑FIC =MIC(A) in combination/MIC(A) alone+MIC(B) in combination /MIC(B) alone
The FIC index (ΣFIC) was interpreted as follows: ΣFIC ≤ 0.5 indicated synergy; 0.5 < ΣFIC ≤ 4 indicated no effect; and 4 < ΣFIC indicated antagonism.

Substance	Antimicrobial Activity (MIC) A. baumannii ATCC 13304 [1] [µM]	Antimicrobial Activity (MIC) E. coli ATCC 25922 [2] [µM]	Antimicrobial Activity (MIC) K. pneumoniae ATCC 13883 [3] [µM]	Antimicrobial Activity (MIC) S. aureus ATCC 25923 [4] [µM]	Antimicrobial Activity (MIC) S. mutans ATCC 25175 [5] [µM]	Antiviral Activity, viral inhibition [6] [%]	Cytotoxicity in Vero cells, MNCC (Vero cells) [µM]	CC50, concentration inducing 50% cell death in Vero cells (Vero cells) [µg/mL]	Cytotoxicity in Vero cells, CC50 (Vero cells) [µM]	Reduction in MIC against A. baumannii compared to hylin-Pul3 [1] [fold]	Reduction in MIC against E. coli compared to hylin-Pul3 [2] [fold]	Antioxidant activity DPPH [7]	Antioxidant activity ABTS (ABTS assay) [mg Trolox/mg]	Lower MIC than the original peptide against K. pneumoniae ([3]; versus hylin-Pul3) [fold]	Synergistic Activity, FIC Index (ΣFIC) (E. coli (ATCC 25922); combination of dHP3-84 and dHP3-50.137, E. coli ATCC 25922, 5 × 10^5 CFU/mL, 37 °C overnight, three independent experiments, ΣFIC ≤ 0.5 = synergy)	Improvement of combined activity compared to each peptide individually (E. coli (ATCC 25922); dHP3-84 + dHP3-50.137, E. coli) [fold]
FLGALIPAIAGAIGGLIRK-NH2 [hylin-Pul3, reference compound]	32.0 ± 0.0	32.0 ± 0.0	>64	7.3 ± 1.6	4.6 ± 1.6	0	13.5	80	43.2							
LWPAIRGAIKKLIKK-NH2 [dHP3-31]	9.3 ± 3.2	16.0 ± 0.0	>64	37.3 ± 13.1	18.7 ± 6.5					4	4	did not reveal significant activity	0.14			
RLGALIPAIRGAIKKLIKK-NH2 [dHP3-50]	6.6 ± 2	8.0 ± 0.0	64.0 ± 0.0	18.6 ± 6.5	8.0 ± 0.0					4	4					
RLGKLIPRIAKAIGRLIRK-OH [dHP3-84]	8.0 ± 0.0	8.0 ± 0.0	18.6 ± 6.5	9.3 ± 3.3	7.3 ± 1.6	70	57.6	230	105.9	4	4			4	0.5	2
RRIALIPAIRGAIKKLIKK-NH2 [dHP3-50.190]	16.0 ± 0.0	9.3 ± 3.2	>64	29.3 ± 6.5	32.0 ± 0.0											
